One molecule from patent publication US7557144B1, “Modulation of protein expression using carbocyclic aryl alkenoic acid derivatives” (The Johns Hopkins University, priority 2000, dated 2009) can be followed below.

One test has as its system Hsc70 mRNA. In words: RNase protection assay of Hsc70 mRNA in IB3-1 cells. Format: cell-based, human. From the text:
4. RNase protection. An Hsc70-specific probe for RNase protec-tion was constructed by isolation a 500-bp EcoR I fragment from American Type Culture Collection (ATCC) plasmid 77659 (ATCC, Manassas, Va.) and ligating this fragment into the EcoR I site of pSK(2) (Bluescript, Stratagene, La Jolla, Calif.). The resulting plasmid was sequenced in the Genetics Core Facility at the Johns Hopkins Hospital and found to be identical to sequences in exons 8 and 9 of the human Hsc70 sequence, with sequencing using the T3 primer and T7 primer leading to sense and antisense sequence, respectively. Hybridization probes were synthesized using a Maxiscript T7 kit (Ambion, Austin, Tex.) and [α^32 P]UTP (Amersham or DuPont NEN, Boston, Mass.) according to the Maxiscript protocol. Templates for internal control hybridizations, pTRI-18S and pTRI-cyclophilin A, were purchased from Ambion, and probes were similarly synthesized using the Maxiscript T7 kit. Probes were isolated by acid phenol-chloroform (Ambion) extraction, separated from unincorporated nucleotide by gel filtration (Sephadex G25 RNAspin column, Boehringer-Mannheim), and ethanol-acetate precipitated before resuspension in hybridization buffer. The concentration of radioactivity in the synthesized probes was determined by liquid scintillation.
RNase protection experiments were performed using the Direct Protect RNase protection assay kit (Ambion) according to the manufacturer's protocol. IB3-1 cell lysates were pre-pared in Direct Protect lysis buffer according to the manufacturer's protocol after incubation under the appropriate conditions for 48 h. Probe (50-70 and 5-10 thousands of counts/min for Hsc70 and control, respectively) and cellular RNA were hybridized overnight at 37° C. and digested with RNase cocktail. Protected fragments were resolved by electrophoresis on 5% acrylamide-8 M urea gels and detected by fluorography. Hsc70 mRNA concentration is expressed relative to control (18S or cyclophilin A) hybridization by densitometry (see Densitometric analysis). Results for hybridization of Hsc70 mRNA relative to the two control species were similar and were therefore grouped for data analysis.
FIGS. 3A-B are explained in more detailed as follows. Dose-dependent downregulation of Hsc70 mRNA expression by 4-PBA. A: IB3-1 cells were treated as for FIGS. 1 and 2. Hsc70 mRNA and 18S rRNA (as an internal reference) were measured by Direct Protect RNase protection as described under General Comments. […] P values (shown above respective error bars) were determined by 1-way ANOVA in comparison with control.
FIG. 6 is explained in more detail as follows. […] P values (shown above respective error bars) were determined by 1-way ANOVA in comparison with control.

In another test the test system is Hdj2. In words: Hdj2 immunoblot of IB3-1 lysates. Format: cell-based, human. The following applies: IB3-1 cells, increasing concentrations of 4-PBA. As for the experimental part:
3. Immunoblot analysis. Whole cell lysates were prepared by solubilization with 2% SDS at 95° C. Protein concentration in the lysates was determined using the Bio-Rad DC assay reagents with bovine plasma g-globulin as a standard (Bio-Rad Laboratories, Hercules, Calif.). Equal amounts of protein was resolved on 5, 7, 8, or 9% SDS-polyacrylamide gels. Proteins were transferred to nitrocellulose, and immunodetection was performed as previously described (25). Nonspecific binding was blocked by incubation of the nitrocellulose with 2% gelatin or 10% nonfat day milk. Primary antisera and secondary antibodies were applied in buffer containing 0.4% BSA overnight at 4° C. and for 1 h at room temperature, respectively. Detection of immunoreactivity was performed with the enhanced chemiluminescence reagent (ECL, Amer-sham) and fluorography. Recombinant bovine Hsc70 ([…]) was purchased from Stressgen Biotechnologies for use in constructing a standard curve of Hsc70 immunoreactivity. Immunoblots containing the bovine Hsc70 were probed with the Hsc70-specific polyclonal antiserum.
Whether 4-PBA would regulate expression of a number of other molecular chaperones in IB3-1 cells (FIG. 2) was assessed next. […] Hsp90 is required for correct folding and function of a number of cellular proteins (16). […]

For the molecule `O=C(O)CCCc1ccccc1` [4-PBA, 4-phenylbutyric acid], the “steady-state Hsc70 mRNA levels” value in the test with Hsc70 mRNA (4-PBA treatment, relative to 18S rRNA) is “concentration-dependent decrease”. The “maximum decrease of Hsc70 mRNA, of control expression” value in the test with Hsc70 mRNA (continuous exposure to 5 mM 4-PBA) is on record as around 50%. Besides, the “expression of Hdj-2” value in the test on Hdj2 is on record as “did not affect”.
